Patent publication US20210128596A1, “COMPOSITIONS AND METHODS FOR TREATING SEPTIC CARDIOMYOPATHY” (UNIVERSITY OF PENNSYLVANIA, priority 2017, published 2021)

What was measured:
Assay type in all cases: in vivo, mouse
[1] = system: cardiac tissue isolated from septic mice; assay: Autophagy markers (LC3BII/LC3BI, Map1lc3b, BNIP3) in cardiac tissue
Procedure: (§1) RNA purification and gene expression analysis—Total RNA was purified from AC16 cells or hearts using the TRIzol reagent according to the instructions of the manufacturer (Invitrogen). DNase-treated RNA was used for cDNA synthesis using the ProtoScript II First Strand cDNA Synthesis Kit (New England Biolabs). Quantitative real-time PCR was performed with the Sybr Select Master Mix (Applied Biosystems). Incorporation of the SYBR green dye into the PCR products was monitored with the Applied Biosystems StepOnePlus Real-Time PCR System. Samples were normalized against mouse 36B4 or human rps13 RNA.
Protein purification and analysis—Isolated heart tissue or AC16 cells were homogenized in radioimmune precipitation assay buffer containing protease and phosphatase inhibitors (Pierce Protease and Phosphatase Inhibitor Mini Tablets, Thermo Scientific). 30-50 μg of total protein extract was applied to SDS-PAGE and transferred onto nitrocellulose membranes.

C57BL/6 mice = assay: Echocardiography after cecal ligation and puncture (CLP) or sham surgery; set-up: LVID; d / EF / FS / LV Mass / LV Mass (Corrected) / LV Vol; d / IVS; d: unit not given here
Procedure: Mice were either sham treated or subjected to cecal ligation puncture (CLP). SDG was administered either 2 hours prior to CLP or 6 hours following CLP. Echocardiograms from each group of mice was collected (FIG. 2A) and ejection fraction (EF, left) and fractional shortening (FS, right) was determined.
Animal care, cecal ligation and puncture procedure and echocardiography—Animal protocols were approved by the Temple University Institutional Animal Care and Use Committee and were carried out in accordance with the NIH guidelines for the care and use of laboratory animals. Wild type (WT) 8-12 week old C57BL/6 mice were purchased from Jackson labs. Cecal ligation and puncture (CLP) was performed as previously described. Mice were anesthetized with 3.5% inhaled isofluorane. Under aseptic conditions, a 1 to 2 cm midline laparotomy was performed and exposure of the cecum with adjoining intestine. The cecum was tightly ligated at its base below the ileo-cecal valve at a distance of lcm and was punctured twice with a 19-gauge needle. The length of the ligated cecum was defined as the distance from the distal end of cecum to ligation point, which affects the degree of disease severity. Fecal material was extruded from the punctured cecum, and it was returned to the peritoneal cavity. The peritoneum and the skin were closed with three sutures. The mice were resuscitated by injecting subcutaneously lml of pre-warmed 0.9% saline solution to induce the hyperdynamic phase of sepsis and for post-operative analgesia the mice received subcutaneously buprenorphine (0.05 mg·kg body weight). Mice received a single intraperitoneal injection of LGM2605 (100 mg/kg i.p.) that was administrated either 2 h prior to CLP or 6 h post CLP. At 12 h post CLP, two-dimensional echocardiography was performed on anesthetized mice (1.5% inhaled isoflurane) using a VisualSonics Vevo 2100 machine. Echocardiographic images were recorded in a digital format. A single observer blinded to the respective treatments of mice analyzed short-axis m-mode images by LV trace. The number of mice used for each experiment are mentioned in the figure legends.

[2] = system: ventricular tissue of septic mice; assay: Mitochondrial biogenesis, fusion and fission gene expression in ventricular tissue
Procedure: as §1

[3] = CLP + LGM2605 (6 hr), 100 mg/kg i.p. 6 h post CLP, echo 12 h post CLP
[4] = CLP + LGM2605 (−2 hr), 100 mg/kg i.p. 2 h prior to CLP, echo 12 h post CLP
[5] = Sham + LGM2605 (6 hr), 100 mg/kg i.p., echo 12 h post-surgery

COc1cc(C[C@@H](CO[C@@H]2O[C@H](CO)[C@@H](O)[C@H](O)[C@H]2O)[C@H](CO[C@@H]2O[C@H](CO)[C@@H](O)[C@H](O)[C@H]2O)Cc2ccc(O)c(OC)c2)ccc1O [LGM2605, secoisolariciresinol diglucoside]
autophagy markers (LC3BII/LC3BI ratio; Map1lc3b and BNIP3 mRNA) ([1]; cardiac tissue from septic mice): Neither marker was alleviated by LGM2605
expression of the mitochondrial damage marker BNIP3 ([1]; septic mice following LGM2605 administration): trend for reduced expression of the mitochondrial damage marker BNIP3
EF (C57BL/6 mice; [3]): 72.7
FS (C57BL/6 mice; [3]): 41.3
IVS; d (C57BL/6 mice; [3]): 1.4
IVS; s (C57BL/6 mice; [3]): 1.8
LV Mass (C57BL/6 mice; [3]): 129.2
LV Mass (Corrected) (C57BL/6 mice; [3]): 103.3
LV Vol; d (C57BL/6 mice; [3]): 30.2
LV Vol; s (C57BL/6 mice; [3]): 8.4
LVID; d (C57BL/6 mice; [3]): 2.8
LVID; s (C57BL/6 mice; [3]): 1.6
LVPW; d (C57BL/6 mice; [3]): 1.1
LVPW; s (C57BL/6 mice; [3]): 1.6
EF (C57BL/6 mice; [4]): 71.7
FS (C57BL/6 mice; [4]): 39.3
IVS; d (C57BL/6 mice; [4]): 1.3
IVS; s (C57BL/6 mice; [4]): 1.6
LV Mass (C57BL/6 mice; [4]): 97.2
LV Mass (Corrected) (C57BL/6 mice; [4]): 77.8
LV Vol; d (C57BL/6 mice; [4]): 18.6
LV Vol; s (C57BL/6 mice; [4]): 5.3
LVID; d (C57BL/6 mice; [4]): 2.3
LVID; s (C57BL/6 mice; [4]): 1.4
LVPW; d (C57BL/6 mice; [4]): 1.1
LVPW; s (C57BL/6 mice; [4]): 1.5
CLP-mediated cardiac dysfunction (C57BL/6 mice; LGM2605 100 mg/kg i.p. 2 h prior to CLP or 6 h post-CLP): prevented CLP-mediated cardiac dysfunction
cardiac fractional shortening (C57BL/6 mice; SDG 100 mg/kg body weight, i.p., 6 hours post-CLP surgery): increased cardiac fractional shortening
ejection fraction (EF) and fractional shortening (FS) (C57BL/6 mice; SDG 2 hours prior to CLP or 6 hours following CLP): restores EF and to pre-CLP levels
EF (C57BL/6 mice; [5]): 66.7
FS (C57BL/6 mice; [5]): 36.4
IVS; d (C57BL/6 mice; [5]): 1.1
IVS; s (C57BL/6 mice; [5]): 1.5
LV Mass (C57BL/6 mice; [5]): 146.7
LV Mass (Corrected) (C57BL/6 mice; [5]): 117.4
LV Vol; d (C57BL/6 mice; [5]): 55.4
LV Vol; s (C57BL/6 mice; [5]): 17.9
LVID; d (C57BL/6 mice; [5]): 3.6
LVID; s (C57BL/6 mice; [5]): 2.3
LVPW; d (C57BL/6 mice; [5]): 1.0
LVPW; s (C57BL/6 mice; [5]): 1.4
systolic function (C57BL/6 mice; septic mice treated with LGM2605): normal systolic function
mitochondrial biogenesis markers PGC1α, PGC1β, mtTFA gene expression ([2]; ventricular tissue 12 hours post-CLP): None of these changes was affected by LGM2605
MFN1, MFN2, DRP1, and FIS1 expression ([2]; ventricular tissue 12 hrs after CLP): restored the CLP-mediated changes in MFN1, MFN2, DRP1, and FIS1 expression
